For series [1], the target named is T1, DNA topoisomerase 1 (Homo sapiens) (UniProt P11387).
T1 sequence (whole entry): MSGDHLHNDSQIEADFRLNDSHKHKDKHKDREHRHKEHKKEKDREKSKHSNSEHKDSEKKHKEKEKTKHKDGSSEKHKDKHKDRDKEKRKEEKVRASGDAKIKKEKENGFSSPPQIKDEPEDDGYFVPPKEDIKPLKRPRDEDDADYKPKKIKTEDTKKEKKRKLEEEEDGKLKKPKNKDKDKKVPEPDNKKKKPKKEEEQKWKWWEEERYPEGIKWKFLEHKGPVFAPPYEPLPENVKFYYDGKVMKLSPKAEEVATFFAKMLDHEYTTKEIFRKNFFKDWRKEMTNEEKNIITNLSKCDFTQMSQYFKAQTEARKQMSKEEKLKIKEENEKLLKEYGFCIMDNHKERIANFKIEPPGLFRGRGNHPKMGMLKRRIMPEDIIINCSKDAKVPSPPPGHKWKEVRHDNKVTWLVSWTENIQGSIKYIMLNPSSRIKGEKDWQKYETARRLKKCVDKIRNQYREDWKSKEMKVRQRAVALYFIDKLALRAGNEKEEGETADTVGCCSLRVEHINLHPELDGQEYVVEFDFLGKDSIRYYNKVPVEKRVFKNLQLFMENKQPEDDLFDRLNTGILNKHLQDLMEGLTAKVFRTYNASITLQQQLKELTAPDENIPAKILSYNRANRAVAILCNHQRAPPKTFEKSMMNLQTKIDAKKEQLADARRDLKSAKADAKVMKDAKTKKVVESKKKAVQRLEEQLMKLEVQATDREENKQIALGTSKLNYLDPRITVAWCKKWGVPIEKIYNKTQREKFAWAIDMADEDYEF
Nature of the series: Inhibition of topoisomerase 1 (unknown origin) assessed as reduction in unwinding of supercoiled pBR322 plasmid DNA by measuring reduction in electrophoretic mobility at 20 uM incubated for 30 mins by EtBr staining based agarose gel electrophoresis.

The subject of series [2] is DNA. Put plainly: Binding affinity to pBR322 plasmid DNA (unknown origin) assessed as DNA intercalation by measuring reduction in electrophoretic shift at 5 to 20 uM incubated for 30 mins by EtBr staining based agarose gel electrophoresis. To be noted: dose 5-20 µM. It is filed as nucleic-acid assay.
The subject of series [3] is DNA. Put plainly: Binding affinity to pBR322 plasmid DNA (unknown origin) assessed as DNA intercalation by measuring reduction in electrophoretic shift incubated for 30 mins by EtBr staining based agarose gel electrophoresis. It is filed as nucleic-acid assay. Particulars: dose 5-20 µM.
The nature of series [4]: Octanol/water partition coefficient, logP of compound at pH 7.4 by HPLC analysis. It counts as physicochemical.
Series [5] in a line: Solubility of compound in deionized water at pH 6. It counts as physicochemical.
Series [6] deals with HCT-116. Nature of the series: Induction of oxidative stress in human HCT-116 cells assessed as increase in ROS-positive cells at 10 uM incubated for 2 hrs by flow cytometry analysis. It is filed as functional, cell-based.
A short description of series [7]: Drug uptake in hFB-hTERT6 cells. It counts as ADME, cell-based. To be noted: human.
The subject of series [8] is HCT-116. Put plainly: Induction of oxidative stress in human HCT-116 cells assessed as increase in ROS-positive cells at 10 uM incubated for 2 hrs by Abcam-ROS deep red staining based fluorescence microscopic analysis. It counts as functional, cell-based.
Series [9] deals with T1, DNA topoisomerase 1 (Homo sapiens). Nature of the series: Inhibition of topoisomerase 1 (unknown origin) assessed as reduction in unwinding of supercoiled pBR322 plasmid DNA by measuring reduction in electrophoretic mobility at 5 to 20 uM incubated for 30 mins by EtBr staining based agarose gel electrophoresis. To be noted: dose 5-20 µM.
A short description of series [10]: Antiproliferative activity against multidrug resistant human K562/4 cells expressing P-gp assessed as inhibition of cell growth incubated for 72 hrs by MTT assay. It counts as functional, cell-based. To be noted: K562/4, 72 h.
The test system of a further series is NCI-H1975. Nature of the series: Antiproliferative activity against human NCI-H1975 cells assessed as inhibition of cell growth incubated for 72 hrs by MTT assay. Particulars: NCI-H1975, 72 h. It counts as functional, cell-based. (Tetrazolium assays rely on reduction of a dye to a coloured formazan, in cell work by metabolically active cells.)
Series [11] deals with Calf thymus DNA. Nature of the series: Binding affinity to calf thymus DNA assessed as binding constant at 10 uM by fluorescence spectroscopy analysis. It is filed as nucleic-acid assay. Particulars: Bos taurus.
Another series has as its system CAPAN-1. Put plainly: Antiproliferative activity against human CAPAN-1 cells assessed as inhibition of cell growth incubated for 72 hrs by MTT assay. It counts as functional, cell-based. Particulars: CAPAN-1, 72 h.
The nature of series [12]: Drug localization in lysosome of human HCT-116 cells assessed as appearance of yellow color at 2 uM incubated for 9 hrs by LysoTracker Green staining based fluorescence microscopic analysis. It is filed as ADME, subcellular. Particulars: hct-116, 9 h.
The subject of another series is K562. Put plainly: Antiproliferative activity against human K562 cells assessed as inhibition of cell growth incubated for 72 hrs by MTT assay. It counts as functional, cell-based. Particulars: K562, 72 h.
A short description of series [13]: Antiproliferative activity against human DND41 cells assessed as inhibition of cell growth incubated for 72 hrs by MTT assay. It is filed as functional, cell-based. To be noted: DND41, 72 h.
A short description of series [14]: Drug uptake in human HCT-116 cells assessed as increase in intracellular accumulation at 2 uM measured after 24 hrs by flow cytometry analysis. Particulars: hct-116, 24 h. It counts as ADME, cell-based.
The next series deals with LN-229. Nature of the series: Antiproliferative activity against human LN-229 cells assessed as inhibition of cell growth incubated for 72 hrs by MTT assay. It is filed as functional, cell-based. To be noted: LN-229, 72 h.
The subject of a further series is HL-60. Nature of the series: Antiproliferative activity against human HL-60 cells assessed as inhibition of cell growth incubated for 72 hrs by MTT assay. Particulars: HL-60, 72 h. It counts as functional, cell-based.
Series [15] is described as follows: Drug uptake in human HCT-116 cells assessed as increase in intracellular accumulation at 2 uM measured after 5 mins by Hoechst 33342 staining based fluorescence confocal microscopic analysis. It is filed as ADME, cell-based. Particulars: hct-116, 5 min.
Series [16] deals with Calf thymus DNA. Put plainly: Binding affinity to calf thymus DNA assessed as dissociation constant at 10 uM by fluorescence spectroscopy analysis. It is filed as nucleic-acid assay, Bos taurus.
Series [17] has as its system HCT-116. Put plainly: Antiproliferative activity against human HCT-116 cells assessed as inhibition of cell growth incubated for 72 hrs by MTT assay. It counts as functional, cell-based. Particulars: HCT-116, 72 h.
Series [18] is described as follows: Cytotoxicity against hFB-hTERT6 cells assessed as inhibition of cell growth incubated for 72 hrs by MTT assay. It counts as toxicity, cell-based. To be noted: human.
In another series the test system is Z-138. Nature of the series: Antiproliferative activity against human Z138 cells assessed as inhibition of cell growth incubated for 72 hrs by MTT assay. It is filed as functional, cell-based. Particulars: Z-138, 72 h.
Series [19] in a line: Drug localization in mitochondria of human HCT-116 cells assessed as appearance of yellow color at 2 uM incubated for 9 hrs by MitoTracker deep red staining based fluorescence microscopic analysis. It is filed as ADME. Particulars: hct-116, 9 h.
The nature of series [20]: Drug localization in lysosome of human HCT-116 cells assessed as appearance of yellow color at 2 uM incubated for 24 hrs by LysoTracker Green staining based fluorescence microscopic analysis. It counts as ADME, subcellular. To be noted: hct-116, 24 h.
Series [21] is described as follows: Drug localization in nucleus of human HCT-116 cells assessed as appearance of magenta color at 2 uM incubated for 24 hrs by Hoechst 33342 staining based fluorescence microscopic analysis. It is filed as ADME, subcellular. Particulars: hct-116, 24 h.
Series [22] can be described thus: Drug uptake in human HCT-116 cells assessed as increase in intracellular accumulation at 2 uM measured after 24 hrs by Hoechst 33342 staining based fluorescence confocal microscopic analysis. Particulars: hct-116, 24 h. It is filed as ADME, cell-based.
Series [23] can be described thus: Drug localization in mitochondria of human HCT-116 cells assessed as appearance of yellow color at 2 uM incubated for 24 hrs by MitoTracker deep red staining based fluorescence microscopic analysis. It is filed as ADME. To be noted: hct-116, 24 h.

Converted amounts (≈) assume the structure as drawn. The source made the active and inactive calls. No cut-off for these calls is given here.

As to `Cc1oc2c(O)c3c(c(O)c2c1C(=O)N1CC[C@H](N)C1)C(=O)c1ccccc1C3=O`, the inhibition entry in series [1] was “Active”. The outcome in the series with DNA [2] was inactive.

The term logD denotes lipophilicity at a set pH, counting ionised and neutral species. A high value points to higher lipophilicity. The solubility is the concentration that dissolves in the medium under given conditions. Lower therefore signals little dissolved substance. Usually IC50 stands for the midpoint of a concentration-inhibition curve. One may read the Kd as a measure of binding affinity in units of concentration. `N[C@H]1CCN(C(=O)C2Cc3c(O)c4c(c(O)c3C2)C(=O)c2ccccc2C4=O)C1`: the Activity result in the series with DNA [3] was “Dose-Dependent Effect”. The compound also gave a logD in [4] of 1.56. The amount in solution in series [5] (solubility) came to 55 mg/mL (≈ 140 mM). Also, the result in the series on HCT-116 [6] and in the series on HCT-116 [8] was Active. Further, the Drug uptake result in [7] is “Active”; in series [12], “Active”; in series [14], “Active”; in series [15] it was “Active”; in series [19] it was “Not Active”. The inhibition entry in [9] was “Active”. For the same compound, the half-maximal inhibitory concentration (IC50) in series [10] came out at 1.9 µM; with NCI-H1975 it was 2300 nM; in the series with CAPAN-1 it was 1000 nM; in the series with K562, 1900 nM; in [13], 2400 nM; in the series on LN-229 it was 700 nM. The results for the IC50 in the series on HL-60, in the series on HCT-116 [17] and in the series on Z-138 were 2100 nM, 1900 nM and 2500 nM, respectively. Moreover, in the series on Calf thymus DNA [11], the Kb was 0.35 10^6/M. Further, the dissociation constant (Kd) in the series with Calf thymus DNA [16] is 2900 nM. Also, in [18], the IC50 at 72 h worked out at 4.2 µM.

In [4], `COc1cccc2c1C(=O)c1c(O)c3c(c(O)c1C2=O)C[C@@](O)(C(=O)CO)C[C@@H]3O[C@H]1C[C@H](N)[C@H](O)[C@H](C)O1` [DOXORUBICIN] showed a logD of 0.3. Further, the result with HCT-116 [6] and in the series with HCT-116 [8] was inactive. In addition, the Drug uptake entry is given as “Active” in [7]; “Active” in series [20]; “Active” in series [14]; “Active” in [21]; “Active” in series [22]; “Not Active” in series [23]. Besides, the IC50 in series [10] turned out to be 4.2 µM; in the series on NCI-H1975, 620 nM; in the series on CAPAN-1 it was 1710 nM; in series [13], 760 nM; in the series on LN-229 it was 1820 nM; with HL-60, 220 nM. Besides, the 50% inhibitory concentration (IC50) was found to be 300 nM in the series on HCT-116 [17] and 1590 nM in the series with Z-138. The Kb in the series with Calf thymus DNA [11] was 1.4 10^6/M. Moreover, the Kd in the series on Calf thymus DNA [16] was 700 nM. Besides, the outcome with DNA [2] was Active.

The values are drawn from ChEMBL document CHEMBL5528031, “Synthesis and antitumor activity of cyclopentane-fused anthraquinone derivatives” (Eur J Med Chem, 2024).
